The record followed here is patent publication US20230020469A1, “USE OF CO-CRYSTALS OF TRAMADOL AND CELECOXIB FOR TREATING PAIN WHILE REDUCING THE ABUSE LIABILITY OF TRAMADOL” (ESTEVE PHARMACEUTICALS, S.A., priority 2019, published 2023).

The nature of the data set: Single dose, open-label, 4-period crossover pharmacokinetic study; plasma tramadol and O-desmethyltramadol (M1) by HPLC-MS/MS; AQ=Cmax/Tmax. As to conditions: for AQ for tramadol, comparison between treatments (in words): 4-way cross-over study, co-crystal vs Ultram® and vs Ultram® and Celebrex® taken concomitantly, Ultram® alone vs in combination; for O-desmethyltramadol AQ / Tramadol AQ: n 33, 2 × 100 mg co-crystal E-58425 tablets oral (Treatment 1), healthy subjects. As to the method:
The study was a single center, randomized, single dose, open-label, 4-period, 4-sequence, crossover design in healthy male and female subjects.
The products were administered to 36 subjects. The wash-out between the periods for each subject was of 7 calendar days.
Separate blood samples were obtained for analysis of tramadol/M1 metabolite and for analysis of celecoxib (data not shown).
As soon as possible following blood collection, samples were centrifuged at a temperature of 4° C. nominal and at approximately 1500 g for 10 minutes. The plasma obtained was separated into duplicate polypropylene culture tubes. […] The samples were frozen in an upright position and retained in the clinic's freezers at a temperature of −20° C. nominal until sent on dry ice to the bioanalytical facility for assay.
The experimental human plasma samples were assayed for tramadol and M1 metabolite (0-desmethyltramadol) and also for celecoxib (data not shown) using two different validated bioanalytical methods by HPLC with MS/MS detection.
Sample pre-treatment involved the liquid-liquid extraction of tramadol and O-desmethyltramadol from 0.100 mL of human plasma; tramadol-D6 and O-desmethyltramadol-D6 were used as the internal standards (IS1 and IS2 respectively). The compounds were identified and quantified using Hilic HPLC with MS/MS detection over a theoretical concentration range of 2.00 ng/mL to 800.00 ng/mL for tramadol and 0.500 ng/mL to 200.00 ng/mL for O-desmethyltramadol. The concentrations were calculated using peak area ratios and the linearity of the calibration curve was determined using a weighted (1/x^2) linear (y=mx+b) least squares regression analysis for tramadol and for O-desmethyltramadol.
Pharmacokinetic parameters were estimated from the individual plasma concentration—time profile for each subject. The main absorption and disposition parameters were obtained using a non-compartmental approach with a log-linear terminal phase assumption. Maximum observed plasma concentration (Cmax) and the time of maximum observed plasma concentration (Tmax) were obtained directly from the experimental data. The trapezoidal rule was used to estimate the area under the curve (AUC; data not shown) and the terminal phase was estimated by maximizing the coefficient of determination estimated from the log-linear regression model (T1/2; data not shown). The abuse quotient was obtained using the following expression AQ=Cmax/Tmax.

For the compound `COc1cccc(C2(O)CCCCC2CN(C)C)c1.Cc1ccc(-c2cc(C(F)(F)F)nn2-c2ccc(S(N)(=O)=O)cc2)cc1.Cl` (racemic) [Co-crystal E-58425, co-crystal of (rac)-tramadol.HCl and celecoxib], the “AQ for tramadol, comparison between treatments (in words)” value is on record as “lower”. The “AQ for tramadol, comparison between treatments (in words)” value (listed as co-crystal E-58425) is given as “better (lower)”. For the same compound, for the setting “Mean”, the “O-desmethyltramadol AQ” value is given as 13.5 ng/(mL · h) and the “Tramadol AQ” value was 70.5 ng/(mL · h). Moreover, for the setting “Median”, the “O-desmethyltramadol AQ” value is 13.3 ng/(mL · h) and the “Tramadol AQ” value was 70.7 ng/(mL · h).
